Laboratory results reported in patent US8664257B2, “Oxygen-substituted 3-heteroaroylamino-propionic acid derivatives and their use as pharmaceuticals” (Sanofi, priority 2010, dated 2014).
Where two headings read alike, the source gives them in different places.

Target: T1, Recombinant human cathepsin A (Homo sapiens, UniProt P10619)
T1 construct: Recombinant human cathepsin A (residues 29-480, with a C-terminal 10-His tag); 10-His (C); purchased R&D Systems 1049-SE
T1 sequence (P10619 29-312 limits assumed): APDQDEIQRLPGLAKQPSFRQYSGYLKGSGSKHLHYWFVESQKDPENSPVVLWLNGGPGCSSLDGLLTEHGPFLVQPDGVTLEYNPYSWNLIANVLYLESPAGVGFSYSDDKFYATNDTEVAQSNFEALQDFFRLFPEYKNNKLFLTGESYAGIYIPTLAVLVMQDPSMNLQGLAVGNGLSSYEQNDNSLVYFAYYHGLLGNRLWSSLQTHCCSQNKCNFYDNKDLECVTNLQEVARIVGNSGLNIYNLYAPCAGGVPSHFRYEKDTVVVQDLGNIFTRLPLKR
T1 sequence (P10619 327-480 limits assumed): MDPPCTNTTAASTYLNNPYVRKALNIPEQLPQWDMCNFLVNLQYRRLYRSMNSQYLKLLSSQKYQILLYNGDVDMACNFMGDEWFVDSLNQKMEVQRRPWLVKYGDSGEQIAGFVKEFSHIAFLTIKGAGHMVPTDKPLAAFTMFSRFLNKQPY
Assay: Cathepsin A inhibitory activity
Assay type: biochemical
Procedure, shortened: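 Read-out was microfluidic separation of cleaved vs. uncleaved Bodipy FL-bradykinin (2 μM), giving turnover, % inhibition and IC50. Compound and 833 ng/ml enzyme met for 15 min RT in pH 5.5 MES/DTT before substrate (15 min RT). The 29-480 His-tagged human enzyme was first activated by cathepsin L, then E-64 (10 μM).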

[1] = recombinant human cathepsin A, read-out: Activity (2): Cathepsin A inhibitory activity, IC50 class
[2] = recombinant human cathepsin A 833 ng/ml, Bodipy FL-labeled bradykinin 2 μM, pH 5.5, read-out: CATH-A IC50

Row | IC50 [1] [nM] | IC50 [2] [nM] | SMILES
1 | 100 to 1000 | – | COc1ccc([C@H](CC(=O)O)NC(=O)c2cc(O)n(-c3ccc(F)cc3)n2)cc1 [Example 435]
2 | 1000 to 30000 | – | COc1ccc(C(CC(=O)O)NC(=O)c2cc(O)n(-c3ccc(F)cc3)n2)c(OC)c1 (stereo not shown) [Example 436]
3 | 100 to 1000 | – | O=C(O)CC(NC(=O)c1cc(O)n(-c2ccc(F)cc2)n1)c1ccc(Oc2ccccc2)cc1 (stereo not shown) [Example 437]
4 | 100 to 1000 | – | COc1ccc([C@H](CC(=O)O)NC(=O)c2cc(O)n(-c3ccc(F)cc3)n2)cn1 [Example 438]
5 | 100 to 1000 | – | O=C(O)CC(NC(=O)c1cc(O)n(-c2ccnc(Cl)c2)n1)c1ccc(-c2ccccc2)cc1 (stereo not shown) [Example 439]
6 | 1000 to 30000 | – | O=C(O)CC(NC(=O)c1cc(O)n(-c2cccnc2)n1)c1ccc(-c2ccccc2)cc1 (stereo not shown) [Example 440]
7 | 100 to 1000 | 513 | COc1cccc(F)c1C(CC(=O)O)NC(=O)c1cc(O)n(-c2ccccc2)n1 (stereo not shown) [Example 441, 3-(2-Fluoro-6-methoxy-phenyl)-3-[(5-hydroxy-1-phenyl-1H-pyrazole-3-carbonyl)-amino]-propionic acid]
8 | 1000 to 30000 | – | O=C(O)CC(NC(=O)c1cc(O)n(-c2ccccc2)n1)c1ccccc1Oc1ccccc1 (stereo not shown) [Example 442]
9 | 100 to 1000 | 220 | O=C(O)CC(NC(=O)c1cc(O)n(-c2ccccc2)n1)c1cc(F)ccc1C(F)(F)F (stereo not shown) [Example 443, 3-(5-Fluoro-2-trifluoromethyl-phenyl)-3-[(5-hydroxy-1-phenyl-1H-pyrazole-3-carbonyl)-amino]-propionic acid]
10 | < 100 | 83.1 | O=C(O)CC(NC(=O)c1cc(O)n(-c2ccccc2)n1)c1cc(Cl)ccc1Cl (stereo not shown) [Example 444, 3-(2,5-Dichloro-phenyl)-3-[(5-hydroxy-1-phenyl-1H-pyrazole-3-carbonyl)-amino]-propionic acid]
11 | 100 to 1000 | 130 | Cc1ccc([C@H](CC(=O)O)NC(=O)c2cc(O)n(-c3ccccc3)n2)cc1 [Example 445, (S)-3-[(5-Hydroxy-1-phenyl-1H-pyrazole-3-carbonyl)-amino]-3-p-tolyl-propionic acid]
12 | 100 to 1000 | 120 | O=C(O)C[C@H](NC(=O)c1cc(O)n(-c2ccccc2)n1)c1ccccc1Cl [Example 446, (S)-3-(2-Chloro-phenyl)-3-[(5-hydroxy-1-phenyl-1H-pyrazole-3-carbonyl)-amino]-propionic acid]
13 | 100 to 1000 | 114 | Cc1c(F)cccc1C(CC(=O)O)NC(=O)c1cc(O)n(-c2ccc(F)cc2F)n1 (stereo not shown) [Example 447, 3-{[1-(2,4-Difluoro-phenyl)-5-hydroxy-1H-pyrazole-3-carbonyl]-amino}-3-(3-fluoro-2-methyl-phenyl)-propionic acid]

Further lines, the compound ahead of its results:

Row | SMILES | IC50 [1] [nM] | IC50 [2] [nM]
14 | COc1ccc(C(CC(=O)O)NC(=O)c2cc(O)n(-c3cccc(F)c3)n2)c(C)c1 (stereo not shown) [Example 426] | 100 to 1000 | –
15 | COc1ccc([C@H](CC(=O)O)NC(=O)c2cc(O)n(-c3cccc(F)c3)n2)cc1 [Example 427] | 1000 to 30000 | –
16 | O=C(O)C[C@H](NC(=O)c1cc(O)n(-c2cccc(F)c2)n1)c1cccc(Cl)c1Cl [Example 428] | 100 to 1000 | –
17 | COc1cccc([C@H](CC(=O)O)NC(=O)c2cc(O)n(-c3cccc(F)c3)n2)c1 [Example 429] | 100 to 1000 | –
18 | O=C(O)C[C@H](NC(=O)c1cc(O)n(-c2cccc(F)c2)n1)c1cccc(Cl)c1 [Example 430] | 100 to 1000 | –
19 | COc1cccc([C@H](CC(=O)O)NC(=O)c2cc(O)n(-c3cccc(F)c3)n2)c1OC [Example 431] | 100 to 1000 | –
20 | Cc1cccc(C(CC(=O)O)NC(=O)c2cc(O)n(-c3cccc(F)c3)n2)c1C (stereo not shown) [Example 432] | 100 to 1000 | –
21 | O=C(O)C[C@H](NC(=O)c1cc(O)n(-c2cccc(F)c2)n1)c1ccccc1F [Example 433] | 100 to 1000 | –
22 | O=C(O)C[C@H](NC(=O)c1cc(O)n(-c2cccc(F)c2)n1)c1c(F)cccc1F [Example 434] | 100 to 1000 | –
